Results on 1 compound are retold here after patent US20220098197A1, “SALTS OF HETEROCYCLIC COMPOUND AND USE THEREOF” (priority 2019, published 2022).

Assay [1] has as its system LPS-induced ALI mice. Put plainly: LPS-induced ALI model: pro-inflammatory cytokines and chemokines in BALF by ELISA. Format: in vivo, Balb/c mice. Particulars: CT-NA 10 or 30 mg/kg, Dex 1 mg/kg, dose-dependent, P<0.05 or P<0.01. The protocol:
Specific pathogen-free (SPF) Balb/c mice (♂/♀; 20-26 g; 8 weeks old) were purchased from Shanghai SIPPR-BK Experimental Animal Co., Ltd. Mice were kept in an isolated ventilated cage in an environment of 40-60% humidity, 24±2° C., and 12 hrs/12 hrs dark-light cycle, and had free access to food and water. The method for preparing the LPS-induced ALI model was simply described as follows. The mice were randomly divided into a control group (12 mice) and an LPS group (48 mice). The LPS group (48 mice) was further divided into four subgroups (12 mice in each subgroup). The unanaesthetized mice in the four subgroups of LPS were intragastrically administered with normal saline (NS), CT-NA at 10 mg/kg or 30 mg/kg, and Dex at 1 mg/kg, respectively. […] 24 hrs after LPS challenge, the oxygen saturation (SO2) of all mice was measured by a Moor VMS-OXY™ instrument which measured SO2 (%) in the microcirculation at the wavelength range of 500 to 650 nm. […]
The expression levels of pro-inflammatory cytokines (TNF-α, IL-1β, IL-6), and chemokines (KC, mouse IL-8 homolog) in the BALF supernatant were determined by using respective ELISA determination kits according to the instruction manual. After measurements of the optical density at 450 nm, the expression level was calculated via the standard curves.
For orientation: An ELISA detects its analyte on a solid surface through an enzyme-linked reagent.

Assay [2] deals with LPS-induced ALI mice. The assay can be described thus: LPS-induced ALI model: lung MPO activity assay. The format is in vivo, Balb/c mice. Particulars: CT-NA 10 or 30 mg/kg (P<0.01, dose dependence), Dex 1 mg/kg (P<0.01).
Method: Specific pathogen-free (SPF) Balb/c mice (♂/♀; 20-26 g; 8 weeks old) were purchased from Shanghai SIPPR-BK Experimental Animal Co., Ltd. Mice were kept in an isolated ventilated cage in an environment of 40-60% humidity, 24±2° C., and 12 hrs/12 hrs dark-light cycle, and had free access to food and water. The method for preparing the LPS-induced ALI model was simply described as follows. The mice were randomly divided into a control group (12 mice) and an LPS group (48 mice). The LPS group (48 mice) was further divided into four subgroups (12 mice in each subgroup). The unanaesthetized mice in the four subgroups of LPS were intragastrically administered with normal saline (NS), CT-NA at 10 mg/kg or 30 mg/kg, and Dex at 1 mg/kg, respectively. One hour later, the mice were anesthetized with sodium pentobarbital (intraperitoneal injection at 40 mg/kg), and then subjected to intratracheal instillation of NS to control group and LPS (4 mg/kg) to all LPS subgroups. […] 24 hrs after LPS challenge, the oxygen saturation (SO2) of all mice was measured by a Moor VMS-OXY™ instrument which measured SO2 (%) in the microcirculation at the wavelength range of 500 to 650 nm.
The MPO activity assay procedure was as follows. […] Then MPO activity was determined by measuring the changes in absorbance at 460 nm via the standard curves by using MPO assay kits.
A further assay relates to neutrophils. Put plainly: PGD2-induced neutrophils migration in vitro, Boyden chamber (Example 2). The format is cell-based, mice. The note with it: pretreatment CT-NA 1 μM or 10 μM, OC459 10 μM; 4 hrs; P<0.01. The protocol: The method for isolating neutrophils and testing effect of CT-NA on neutrophils migration was briefly described as follows. 1.5% glycogen was injected intragastrically into mice at a dose of 20 ml/kg body weight. 4 hrs later, the mice were euthanized to isolate neutrophils from the peritoneal lavage. Effect of CT-NA on the migration of neutrophils was detected using the Boyden chamber assay kit (3 um pore size, Billerica, Mass.). PGD2 was used as a chemoattractant because the activated PGD2/CRTH2 receptors promoted the neutrophils migration. Firstly, the isolated neutrophils were inoculated at 4×10^5 cells/ml into the upper side of well of the Boyden chamber, and the lower chamber contained different concentrations of PGD2 (0.1, 1 and 10 μM), and the neutrophils were allowed to migrate towards PGD2 for 4 hrs at 37° C. in order to find out the suitable PGD2 concentration. After evaluation of the suitable PGD2 concentration, the migration of neutrophils pretreated with CT-NA (1 and 10 μM) and OC459 (10 μM), another effective CRTH2 inhibitor, toward PGD2 (1 μM) was assessed for 4 hrs.

Another assay concerns RAW264.7 macrophages. Put plainly: RT-PCR analysis, LPS- or PGD2-stimulated RAW264.7. The format is cell-based, mouse. Particulars: CT-NA 10 and 100 μM, P<0.05 or P<0.01. The protocol:
For ELISA and RT-PCR, RAW 264.7 macrophages were acclimated to two 12-well plates at 70-80% confluence. Thereafter, the medium in the 12-well plate was replaced with serum-free RPMI-1640 medium for 10-12 hrs and then exposed to CT-NA (10 and 100 μM) for 1 hour. One hour later, one 12-well plate was treated with LPS (100 ng/ml) for 24 hrs, and the other was treated with PGD2 (10 μM) for 24 hrs. After the treatment, the supernatant of the treated cells was collected to measure the protein levels of TNF-α, IL-1β, IL-6, and KC using ELISA kits according to the method of the instructions. Subsequently, RNA samples from each treated plate were extracted and reverse-transcripted into cDNA with HiScript5xQRTSuperMix, and then subjected to RT-PCR using BioRad CFX96 Touch™ real-time PCR detection system (San Diego, Calif.). Similarly, total RNAs extracted from treated isolated peritoneal macrophages were subjected to analyze the mRNA levels of IL-10, TNF-α, IL-6 and KC. The primers used in the RT-PCR reaction were shown in Table 2. β-actin was used as an internal control. The RT-PCR reactions were triplicated and the relative expression of target mRNA was normalized by the respective β-actin.

On to `CN([C@@H]1CCc2c(CC(=O)[O-])c3cccnc3n2C1)S(=O)(=O)c1ccc(F)cc1.[Na+]` [Sodium salt hydrate], for which the “production of IL-1β, TNF-α, IL-6 and KC in BALF” value in the assay with LPS-induced ALI mice [1] is listed as “effectively reduced”. The “MPO activity in lung tissues” value in the assay on LPS-induced ALI mice [2] was “remarkably reduced”. Further, in the assay with neutrophils, the “neutrophils migration induced by 1 μM PGD2” value is “significantly reduced”. The “mRNA expressions of IL-1β, TNF-α, IL-6 and KC, LPS-stimulated” value with RAW264.7 macrophages (LPS, dose-dependent) is on record as “reduced”. The “mRNA expressions of IL-1β, TNF-α, IL-6 and KC, PGD2-stimulated” value in the assay on RAW264.7 macrophages (PGD2, dose-dependent) was “reduced”.
